According to patent US11628162B2, “Methods of treating cancer with an FGFR inhibitor” (Incyte Corporation, priority 2019, dated 2023):

How the values were obtained:
[1] = Phase 1 drug-drug interaction study: safety and tolerability (TEAEs)
Description: In addition, this study also evaluates the safety and tolerability of pemigatinib when administered alone or in combination with itraconazole or rifampin. Safety and tolerability is assessed by monitoring adverse events, vital signs, physical examinations, 12-lead ECGs, and clinical laboratory blood and urine sample assessments. Pharmacokinetic endpoints include tmax, AUC0-t, AUC0-∞, t1/2, CL/F, and Vz/F.
Vital signs (oral temperature; respiratory rate; automated, seated blood pressure; and pulse) are obtained at screening, check-in, and follow-up; at 0 hour (predose) on Days 1 and 8; and at approximately 1, 2, 3, 6, and 24 hours after the morning dose on Day 4 and Day 9. Clinical safety laboratory assessments are performed at screening; on Days −1, 2, 5, 9, 10, and 11; and at follow-up. A serum pregnancy is obtained at screening and follow-up. A urine pregnancy test is obtained at check-in for each visit for all women. On Day 8, a 12-lead ECG is performed predose, 2 hours postdose, and approximately 24 hours postdose. On other days, 12-lead ECGs are performed only at predose.
Vital signs (oral temperature; respiratory rate; automated, seated blood pressure; and pulse) are obtained at screening, check-in and follow-up; at 0 hour (predose) on Days 1 and 11; and at approximately 1, 2, 3, 6, and 24 hours after the morning dose on Days 4, 10, and 12. Clinical safety laboratory assessments are performed at screening; on Days −1, 2, 8, and 13; and at follow-up. A serum pregnancy test is obtained at screening and follow-up. A urine pregnancy test is obtained at check-in for each visit for all women. On Day 11, a 12-lead ECG is performed predose, 2 hours postdose, and approximately 24 hours postdose. On other days, 12-lead ECGs is performed only at predose.

CYP2C9 = CYP2C9 (Homo sapiens, UniProt P11712); assay: In vitro metabolism of pemigatinib by recombinant human CYP2C9; format: in vitro ADME
Description: In vitro metabolism studies were conducted to determine the human cytochrome P450 (CYP) isozyme(s) capable of metabolizing pemigatinib.
In vitro metabolism studies were conducted to determine the individual human recombinant CYP isozymes capable of metabolizing pemigatinib (1 μM) and included CYP1A2, CYP2B6, CYP2C8, CYP2C9, CYP2C19, CYP2D6, or CYP3A4.

clinical = settings: human, plasma
[2] = Cohort 1 (n=18): pemigatinib 4.5 mg alone and with itraconazole

CYP2C9, sequence (P11712 whole entry): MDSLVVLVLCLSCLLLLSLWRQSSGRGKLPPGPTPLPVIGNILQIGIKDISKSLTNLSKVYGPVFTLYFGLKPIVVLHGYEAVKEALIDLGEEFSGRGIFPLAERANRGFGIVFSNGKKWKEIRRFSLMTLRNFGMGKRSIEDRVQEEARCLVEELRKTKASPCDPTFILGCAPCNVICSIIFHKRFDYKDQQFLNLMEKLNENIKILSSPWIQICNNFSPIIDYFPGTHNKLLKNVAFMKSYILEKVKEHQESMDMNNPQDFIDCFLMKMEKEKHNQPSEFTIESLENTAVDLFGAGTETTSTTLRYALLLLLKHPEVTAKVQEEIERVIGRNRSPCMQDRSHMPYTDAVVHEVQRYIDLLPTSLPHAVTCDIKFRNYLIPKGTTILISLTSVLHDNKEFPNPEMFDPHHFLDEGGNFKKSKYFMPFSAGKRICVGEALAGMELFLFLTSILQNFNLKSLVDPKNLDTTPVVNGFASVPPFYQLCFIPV

CCN1C(=O)N(c2c(F)c(OC)cc(OC)c2F)Cc2cnc3[nH]c(CN4CCOCC4)cc3c21 [Pemigatinib, 3-(2,6-difluoro-3,5-dimethoxyphenyl)-1-ethyl-8-(morpholin-4-ylmethyl)-1,3,4,7-tetrahydro-2H-pyrrolo[3′,2′: 5,6]pyrido[4,3-d]pyrimidin-2-one]
Dry mouth TEAE, % [1, 2]: (11.1) % | Dry skin TEAE, % [1, 2]: (11.1) % | Headache TEAE, % [1, 2]: (16.7) % | Nausea TEAE, % [1, 2]: (5.6) % | Paraesthesia TEAE, % [1, 2]: (0) % | Rash papular TEAE, % [1, 2]: (11.1) % | Somnolence TEAE, % [1, 2]: (11.1) % | Vision blurred TEAE, % [1, 2]: (11.1) % | Most common TEAE ([1]; both cohorts): headache | Serious TEAEs or deaths ([1]; both cohorts): no serious TEAEs or deaths | TEAEs of grade 3 or higher ([1]; both cohorts): no TEAEs of grade 3 or high | Treatment discontinuations or dose interruptions due to TEAEs ([1]; both cohorts): no treatment discontinuations or dose interruptions due to TEAEs | Safety and tolerability (overall conclusion) ([1]; healthy male and female volunteers): safe and generally well tolerated | Extent of in vitro metabolism by CYP2C9 (in words) (CYP2C9): negligible | Average Percent (N = 2) of Pemigatinib Remaining vs Control (30 mins) (CYP2C9; recombinant CYP2C9, pemigatinib 1 μM, 30 min): 88% | AUC0-t (clinical; oral, 4.5 mg): 0.674 ± 0.246 µM·h | AUC(0-inf) (clinical; oral, 4.5 mg): 0.712 ± 0.252 µM·h | Cmax (clinical; oral, 4.5 mg): 55.2 nM | Tmax (clinical; oral, 4.5 mg): 2 h | Vd/F (clinical; oral, 4.5 mg): 244 ± 75.8 L | half-life (clinical; oral, 4.5 mg): 708 min | AUC(0-inf) (clinical; oral, 13.5 mg): 2.04 ± 0.556 µM·h | Cmax (clinical; oral, 13.5 mg): 176 nM | Tmax (clinical; oral, 13.5 mg): 1.5 h | Vd/F (clinical; oral, 13.5 mg): 267 ± 73.1 L | half-life (clinical; oral, 13.5 mg): 762 min | AUC (clinical; po, 4.5 mg): 0.672 µM·h | Cmax (clinical; po, 4.5 mg): 60.1 ± 25.3 nM | Cmax (clinical; po, 13.5 mg): 187 ± 63.3 nM
